Reference: publication PMC5453931, “Cathelicidin-trypsin inhibitor loop conjugate represents a promising antibiotic candidate with protease stability” (Scientific Reports, 2017)
In brackets after ≈: the same amount, converted by molar mass. Where a SMILES comes first, the peptide text is derived from it. Bridges are numbered along the chain shown (N, C = ends).

Legend:
trypsin = assay: Protease stability, RP-HPLC analysis of degradation; assay type: in vitro ADME
Experimental: To further examine the stability of TIH3F incubated with enzymes (trypsin and protease K) over time, the LC analysis of peptide degradation over a series of time spans (0, 6, 12, 24 h) was performed. TIH3F and protease solution were prepared in 0.1 M NH4HCO3 buffer (pH 8.2) to final molar ratio of 300:1, and incubated at 37 °C for 6, 12, and 24 h, respectively. Then 150 μL aliquots were taken at given time intervals, diluted with 150 μL of water/acetonitrile (60/40 v/v) containing 2% TFA, and analyzed by RP-HPLC (Thermo Scientific Syncronis C18 column, 250 mm × 4.6 mm, 5 μm), eluted with acetonitrile/water (containing 0.1% TFA) mixture of linear gradient concentration.

Raw264.7 cells = assay: LPS-induced NO, cytokine and chemokine production (Griess reagent, ELISA); assay type: cell-based, murine; details: LPS 100 ng/mL, peptide 5, 10, 20 μg/mL, 24 h, Fig. 6
Experimental: RAW264.7 cells were cultured in DMEM (Gibco, Gaithersburg, USA), containing 10% fetal bovine serum, 100 U/mL streptomycin and 100 U/mL penicillin at 37 °C with 5% CO2, and plated in 24-well plate (1 × 10^6 cells/well). After adhesion, the cells were treated with LPS (100 ng/mL, from E. coli 055:B5, Sigma-Aldrich) in the absence or presence (5, 10, 20 μg/mL) of peptides for 24 h in the same condition. Untreated cells and LPS alone treated cells served as control. The NO was determined using Griess reagent (Beyotime, Jiangsu, China) according to the manufacturer’s protocol. ELISA kits (Joyee, shanghai, china) were used to detect the levels of pro-inflammatory cytokines and chemokines in RAW264.7 cell culture supernatant, including TNF-α, IL-6, IL-1β and MCP-1.

Vibrio Parahaemolyticus = assay: MIC, two-fold broth microdilution; assay type: cell-based; details: Aquatic pathogenic bacteria; two-fold broth microdilution, 37 °C, 18 h; mean of three independent experiments in duplicates
Method in brief: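 Growth at A595 after 18 h at 37 °C defines the MIC, taken as the minimal peptide concentration giving no microbial growth. Organisms were grown to exponential phase in Mueller-Hinton broth and diluted to 10^6 CFU/mL prior to combining with an equal volume of peptide dilutions.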

Compound: CC[C@H](C)[C@@H]1NC(=O)[C@H](CO)NC(=O)[C@H](CCCCN)NC(=O)[C@H]([C@@H](C)O)NC(=O)[C@H](Cc2c[nH]c3ccccc23)NC(=O)[C@@H](N)CSSC[C@@H](C(=O)N[C@@H](CCCCN)C(=O)N[C@@H](Cc2ccccc2)C(=O)N[C@@H](Cc2ccccc2)C(=O)N[C@@H](CCCCN)C(=O)N[C@@H](CCCNC(=N)N)C(=O)N[C@@H](Cc2ccccc2)C(=O)N[C@@H](Cc2ccccc2)C(=O)N[C@@H](CCCCN)C(=O)N[C@@H](CO)C(=O)N[C@@H](Cc2ccccc2)C(=O)N[C@@H](CCCNC(=N)N)C(=O)N[C@@H](CCCNC(=N)N)C(=O)N[C@@H](C)C(=O)N[C@@H](Cc2ccccc2)C(=O)N[C@@H](CCCCN)C(=O)N[C@@H](CCCCN)C(=O)N[C@@H](Cc2ccccc2)C(N)=O)NC(=O)[C@@H]2CCCN2C(=O)[C@H](CCCCN)NC(=O)[C@@H]2CCCN2C(=O)[C@@H]2CCCN2C1=O [TIH3F] (H-CWTKSIPPKPCKFFKRFFKSFRRAFKKF-NH2; disulfide 1-11)
- RP-HPLC absorbance of the peptide before trypsin incubation (trypsin; pure peptide, 0 h, C18 RP-HPLC, Fig. 4E): 600 mAU
- degradation by trypsin (trypsin; trypsin, 300:1, 0.1 M NH4HCO3 pH 8.2, 37 °C, 6 h, RP-HPLC, Fig. 4): a little degradation
- intact peptide remaining after trypsin incubation (trypsin; trypsin, 300:1, 0.1 M NH4HCO3 pH 8.2, 37 °C, up to 24 hours, RP-HPLC, Fig. 4): remained half
- RP-HPLC absorbance of the peptide after trypsin incubation (trypsin; trypsin, peptide:protease 300:1, 0.1 M NH4HCO3 pH 8.2, 37 °C, 6 h, C18 RP-HPLC, Fig. 4F): 500 mAU
- LPS-induced production of NO, TNF-α, IL-6, IL-1β, MCP-1 (Raw264.7 cells): strongest anti-inflammation effect
- MIC Vibrio Parahaemolyticus (Vibrio Parahaemolyticus): 4.69 µg/mL (≈ 1.32 µM)
